Source: the supplement of paper PMC11061612

Columns and labels:
Assay in all cases: combination Emax (second highest fraction inhibited in the dose matrix, 72 h); higher = more inhibition; extreme values may be limits of the assay
[1] = system: Ca9-22 (Head and Neck Carcinoma)
Procedure, shortened: (§1)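 Cell lines in DMEM/F12 or RPMI with 10% FBS were plated in 1536-well plates, held 24 hours at 37°C, 5% CO2, then given two-drug dose matrices for 72 hours (DMSO typically 0.2%). Viability was read by CellTiter-Glo 2.0 luminescence and scaled as inhibition from 0 (vehicle wells) to 1 (blank wells). Combination Emax is the second-highest inhibition in the matrix; Bliss excess is observed combination effect minus expected EA + EB − EA·EB, EA and EB being single-agent effects.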

[2] = system: MIA-PaCa-2 (Pancreatic Carcinoma)
Procedure, shortened: as §1

D-263MG (Glioblastoma) = system: D-263MG (Glioblastoma)
Procedure, shortened: as §1

[3] = system: Hs-766T (Pancreatic Carcinoma)
Procedure, shortened: as §1

[4] = system: KYSE-450 (Esophageal Squamous Cell Carcinoma)
Procedure, shortened: as §1

[5] = system: EFM-19 (Breast Carcinoma)
Procedure, shortened: as §1

NB69 (Neuroblastoma) = system: NB69 (Neuroblastoma)
Procedure, shortened: as §1

UACC-62 (Melanoma) = system: UACC-62 (Melanoma)
Procedure, shortened: as §1

[6] = system: RF-48 (B-Cell Non-Hodgkin's Lymphoma)
Procedure, shortened: as §1

[7] = system: BT-549 (Breast Carcinoma)
Procedure, shortened: as §1

TGW (Neuroblastoma) = system: TGW (Neuroblastoma)
Procedure, shortened: as §1

[8] = system: NCI-H727 (Other Solid Carcinomas)
Procedure, shortened: as §1

ACHN (Kidney Carcinoma) = system: ACHN (Kidney Carcinoma)
Procedure, shortened: as §1

[9] = system: PANC-04-03 (Pancreatic Carcinoma)
Procedure, shortened: as §1

| SMILES | combination Emax [1] | combination Emax [2] | combination Emax (D-263MG (Glioblastoma)) | combination Emax [3] | combination Emax [4] | combination Emax [5] | combination Emax (NB69 (Neuroblastoma)) | combination Emax (UACC-62 (Melanoma)) | combination Emax [6] | combination Emax [7] | combination Emax (TGW (Neuroblastoma)) | combination Emax [8] | combination Emax (ACHN (Kidney Carcinoma)) | combination Emax [9] |
| --- | --- | --- | --- | --- | --- | --- | --- | --- | --- | --- | --- | --- | --- | --- |
| C=CCn1c(=O)c2cnc(Nc3ccc(N4CCN(C)CC4)cc3)nc2n1-c1cccc(C(C)(C)O)n1 [AZD1775] + CCc1c2c(nc3ccc(O)cc13)-c1cc3c(c(=O)n1C2)COC(=O)[C@]3(O)CC [SN-38] (first compound max 1 µM, partner max 0.3 µM) | 0.965 | 0.969 | 0.641 | 0.537 | 0.951 | 0.743 | 0.997 | 0.745 | 0.783 | 0.857 | 0.728 | 0.514 | 0.946 | 0.617 |
| C=CCn1c(=O)c2cnc(Nc3ccc(N4CCN(C)CC4)cc3)nc2n1-c1cccc(C(C)(C)O)n1 [AZD1775] + Nc1ccn([C@@H]2O[C@H](CO)[C@@H](O)C2(F)F)c(=O)n1 [Gemcitabine] (first compound max 1 µM, partner max 0.3 µM) | 0.834 | 0.947 | 0.622 | 0.42 | 0.875 | 0.614 | 1 | 0.73 | 0.727 | 0.827 | 0.809 | 0.392 | 0.853 | 0.526 |
| CN(CCO)CC[C@H](CSc1ccccc1)Nc1ccc(S(=O)(=O)NC(=O)c2ccc(N3CCC([C@@H](O)c4ccccc4-c4ccc(Cl)cc4)CC3)cc2)cc1S(=O)(=O)C(F)(F)F [AZD4320] + CS(=O)(=O)CCNCc1ccc(-c2ccc3ncnc(Nc4ccc(OCc5cccc(F)c5)c(Cl)c4)c3c2)o1 [Lapatinib] (first compound max 1 µM, 7x7, partner max 10 µM) | 0.974 | 0.832 | 0.154 | 0.435 | 0.41 | 0.846 | 0.983 | 0.362 | 0.874 | 0.633 | 1 | 0.96 | 0.466 | 0.313 |
| Cc1c2c(nn1C)CSCc1cc(n(C)n1)CSc1cc(c3ccccc3c1)OCCCc1c(C(=O)O)n(C)c3c-2c(Cl)ccc13 [AZD5991] + CC(=O)O[C@H]1C(=O)[C@@]2(C)[C@H]([C@H](OC(=O)c3ccccc3)[C@]3(O)C[C@H](OC(=O)[C@H](O)[C@@H](NC(=O)c4ccccc4)c4ccccc4)C(C)=C1C3(C)C)[C@]1(OC(C)=O)CO[C@@H]1C[C@@H]2O [Paclitaxel] (first compound max 1 µM, 7x7, partner max 3 µM) | 0.963 | 0.807 | 1 | 0.304 | 0.847 | 0.931 | 1 | 0.831 | 0.807 | 0.864 | 0.955 | 0.136 | 0.604 | 0.52 |
| Cc1c2c(nn1C)CSCc1cc(n(C)n1)CSc1cc(c3ccccc3c1)OCCCc1c(C(=O)O)n(C)c3c-2c(Cl)ccc13 [AZD5991] + CS(=O)(=O)CCNCc1ccc(-c2ccc3ncnc(Nc4ccc(OCc5cccc(F)c5)c(Cl)c4)c3c2)o1 [Lapatinib] (first compound max 1 µM, 7x7, partner max 10 µM) | 0.933 | 0.496 | 0.458 | 0.188 | 0.541 | 0.364 | 0.902 | 0.576 | 0.244 | 0.412 | 0.312 | 0.299 | 0.481 | 0.343 |
| Cc1c2c(nn1C)CSCc1cc(n(C)n1)CSc1cc(c3ccccc3c1)OCCCc1c(C(=O)O)n(C)c3c-2c(Cl)ccc13 [AZD5991] + Nc1ccn([C@@H]2O[C@H](CO)[C@@H](O)C2(F)F)c(=O)n1 [Gemcitabine] (first compound max 1 µM, 7x7, partner max 0.3 µM) | 0.68 | 0.85 | 0.894 | 0.332 | 0.459 | 0.573 | 0.99 | 0.753 | 0.679 | 0.395 | 0.621 | 0.283 | 0.744 | 0.548 |
| C[C@@H]1COCCN1c1cc(C2([S@](C)(=N)=O)CC2)nc(-c2ccnc3[nH]ccc23)n1 [AZD6738] + C1CC(C1)(C(=O)[O-])C(=O)[O-].N.N.[Pt+2] [Carboplatin] (first compound max 10 µM, 7x7, partner max 10 µM) | 0.895 | 0.547 | 0.386 | 0.442 | 0.312 | 0.211 | 0.857 | 0.246 | 0.329 | 0.51 | 0.574 | 0.472 | 0.819 | 0.455 |
| C[C@@H]1COCCN1c1cc(C2([S@](C)(=N)=O)CC2)nc(-c2ccnc3[nH]ccc23)n1 [AZD6738] + Nc1ccn([C@@H]2O[C@H](CO)[C@@H](O)C2(F)F)c(=O)n1 [Gemcitabine] (first compound max 10 µM, 7x7, partner max 0.3 µM) | 0.923 | 0.947 | 0.738 | 0.505 | 0.862 | 0.795 | 1 | 0.757 | 0.77 | 0.797 | 0.897 | 0.526 | 0.875 | 0.627 |
| C[C@@H](Nc1cc(F)cc(F)c1)c1cc(C(=O)N(C)C)cc2c(=O)cc(N3CCOCC3)oc12 [AZD8186] + C1CN(CCC1(C(=O)N[C@@H](CCO)C2=CC=C(C=C2)Cl)N)C3=NC=NC4=C3C=CN4 [AZD5363] (first compound max 10 µM, 7x7, partner max 10 µM) | 0.296 | 0.258 | 0.284 | 0.336 | 0.31 | 0.432 | 0.659 | 0.514 | 0.432 | 0.343 | 0.258 | 0.411 | 0.414 | 0.275 |
| C[C@@H](Nc1cc(F)cc(F)c1)c1cc(C(=O)N(C)C)cc2c(=O)cc(N3CCOCC3)oc12 [AZD8186] + CC(=O)c1c(C)c2cnc(Nc3ccc(N4CCNCC4)cn3)nc2n(C2CCCC2)c1=O [Palbociclib] (first compound max 10 µM, 7x7, partner max 10 µM) | 0.368 | 0.471 | 0.355 | 0.441 | 0.378 | 0.449 | 0.927 | 0.51 | 0.4 | 0.392 | 0.32 | 0.362 | 0.661 | 0.344 |
| C[C@@H](Oc1cc(-c2cnn(C3CCNCC3)c2)cnc1N)c1c(Cl)ccc(F)c1Cl [Crizotinib] + CC1=C(C(=CC=C1)Cl)NC(=O)C2=CN=C(S2)NC3=CC(=NC(=N3)C)N4CCN(CC4)CCO [Dasatinib] (first compound max 10 µM, 7x7, partner max 2 µM) | 0.952 | 0.608 | 0.843 | 0.533 | 0.567 | 0.636 | 0.951 | 0.345 | 0.365 | 0.679 | 0.677 | 0.79 | 0.756 | 0.529 |
| C[C@@H](Oc1cc(-c2cnn(C3CCNCC3)c2)cnc1N)c1c(Cl)ccc(F)c1Cl [Crizotinib] + Cn1cnc2c(F)c(Nc3ccc(Br)cc3Cl)c(C(=O)NOCCO)cc21 [Selumetinib] (first compound max 10 µM, 7x7, partner max 10 µM) | 0.542 | 0.763 | 0.308 | 0.516 | 0.381 | 0.224 | 1 | 0.782 | 0.306 | 0.38 | 0.69 | 0.958 | 0.572 | 0.631 |
| CS(=O)(=O)CCNCc1ccc(-c2ccc3ncnc(Nc4ccc(OCc5cccc(F)c5)c(Cl)c4)c3c2)o1 [Lapatinib] + Cn1cnc2c(F)c(Nc3ccc(Br)cc3Cl)c(C(=O)NOCCO)cc21 [Selumetinib] (first compound max 10 µM, 7x7, partner max 10 µM) | 0.845 | 0.57 | 0.259 | 0.582 | 0.41 | 0.289 | 0.916 | 0.831 | 0.275 | 0.32 | 0.207 | 0.631 | 0.577 | 0.77 |
| CS(=O)(=O)CCNCc1ccc(-c2ccc3ncnc(Nc4ccc(OCc5cccc(F)c5)c(Cl)c4)c3c2)o1 [Lapatinib] + NC1(c2ccc(-c3nc4ccn5c(=O)[nH]nc5c4cc3-c3ccccc3)cc2)CCC1 [MK-2206] (first compound max 10 µM, 7x7, partner max 10 µM) | 0.971 | 0.929 | 0.492 | 0.303 | 0.602 | 0.792 | 0.941 | 0.516 | 0.658 | 0.583 | 0.422 | 0.88 | 0.676 | 0.505 |
| O=C(c1cc(Cc2n[nH]c(=O)c3ccccc23)ccc1F)N1CCN(C(=O)C2CC2)CC1 [Olaparib] + CC1(C)CCC(CN2CCN(c3ccc(C(=O)NS(=O)(=O)c4ccc(NCC5CCOCC5)c([N+](=O)[O-])c4)c(Oc4cnc5[nH]ccc5c4)c3)CC2)=C(c2ccc(Cl)cc2)C1 [Venetoclax] (first compound max 10 µM, 7x7, partner max 1 µM) | 0.229 | 0.209 | 0.0634 | 0.135 | 0.0027 | 0.194 | 0.643 | 0.213 | 0.606 | 0.18 | 0.429 | 0.119 | 0.143 | 0.176 |
| O=C(c1cc(Cc2n[nH]c(=O)c3ccccc23)ccc1F)N1CCN(C(=O)C2CC2)CC1 [Olaparib] + CN(CC[C@H](CSC1=CC=CC=C1)NC2=C(C=C(C=C2)S(=O)(=O)NC(=O)C3=CC=C(C=C3)N4CCC(CC4)[C@H](C5=CC=CC=C5C6=CC=C(C=C6)Cl)O)S(=O)(=O)C(F)(F)F)CCO [AZD4320] (first compound max 10 µM, 7x7, partner max 1 µM) | 0.349 | 0.184 | 0.0474 | 0.219 | 0.0781 | 0.428 | 0.943 | 0.198 | 0.926 | 0.217 | 0.925 | 0.433 | 0.154 | 0.121 |
